We go through 9 compounds from patent US8410104B2, “Pyridazines” (Hoffmann-La Roche Inc., priority 2009, dated 2013).

The target in this test is T1, human GABA A α5 receptor (α5β3γ2) (Homo sapiens, UniProt P18507+P31644).
T1 construct: expressed in transfected cells; host or cells: HEK293 cells, transiently transfected; membranes prepared from cell pellets
Nature of the test: [3H]flumazenil competition binding assay, human GABA A α5β3γ2 receptors in HEK293 cells. Conditions: human receptors transiently transfected in HEK293; 0.5 nM [3H]flumazenil; means of two determinations; read-out: hKi GABA A α5. The protocol: Membrane Preparation and Binding Assay
The affinity of compounds at GABA A receptor subtypes was measured by competition for [^3H]flumazenil (85 Ci/mmol; Roche) binding to HEK293 cells expressing rat (stably transfected) or human (transiently transfected) receptors of composition α1β3γ2, α2β3γ2, α3β3γ2 and α5β3γ2.
Cell pellets were suspended in Krebs-tris buffer (4.8 mM KCl, 1.2 mM CaCl2, 1.2 mM MgCl2, 120 mM NaCl, 15 mM Tris; pH 7.5; binding assay buffer), homogenized by polytron for ca. 20 sec on ice and centrifuged for 60 min at 4° C. (50000 g; Sorvall, rotor: SM24=20000 rpm). The cell pellets were re-suspended in Krebs-tris buffer and homogenized by polytron for ca. 15 sec on ice. Protein was measured (Bradford method, Bio-Rad) and aliquots of 1 mL were prepared and stored at −80° C.
Radioligand binding assays were carried out in a volume of […] (96-well plates) which contained […] of cell membranes, [^3H]flumazenil at a concentration of 1 nM for α1, α2 and α3 subunits and 0.5 nM for α5 subunits and the test compound in the range of […]. Nonspecific binding was defined by 10^−5 M diazepam and typically represented less than 5% of the total binding. Assays were incubated to equilibrium for 1 hour at 4° C. and harvested onto GF/C uni-filters (Packard) by filtration using a Packard harvester and washing with ice-cold wash buffer (50 mM Tris; pH 7.5). After drying, filter-retained radioactivity was detected by liquid scintillation counting. Ki values were calculated using Excel-Fit (Microsoft) and are the means of two determinations.

For `CCCCc1noc(C)c1COc1ccc(C(N)=O)nn1` [Example 9, 6-(3-Butyl-5-methyl-isoxazol-4-ylmethoxy)-pyridazine-3-carboxylic acid amide], the Ki is 7.3 nM.

As for `CCCCc1noc(C)c1COc1ccc(C(=O)NC(C)C)nn1` [Example 1, 6-(3-Butyl-5-methyl-isoxazol-4-ylmethoxy)-pyridazine-3-carboxylic acid isopropylamide], the Ki was found to be 12.8 nM.

As for `CCCCc1noc(C)c1COc1ccc(C(=O)NCC(C)(C)O)nn1` [Example 4, 6-(3-Butyl-5-methyl-isoxazol-4-ylmethoxy)-pyridazine-3-carboxylic acid (2-hydroxy-2-methyl-propyl)-amide], the Ki is 17.3 nM.

Regarding `CCCCc1noc(C)c1COc1ccc(C(=O)NC2CCOC2)nn1` (racemic) [Example 8, Rac-6-(3-Butyl-5-methyl-isoxazol-4-ylmethoxy)-pyridazine-3-carboxylic acid (tetrahydro-furan-3-yl)-amide], the Ki was 6.9 nM.

Turning to `CCCCc1noc(C)c1COc1ccc(C(=O)NC(C)CO)nn1` (stereo not drawn) [Example 7, 6-(3-Butyl-5-methyl-isoxazol-4-ylmethoxy)-pyridazine-3-carboxylic acid (2-hydroxy-1-methyl-ethyl)-amide], the Ki was 10.4 nM.

Take `CCCCc1noc(C)c1COc1ccc(C(=O)N[C@H]2CCOC2)nn1` [Example 6, (S)-6-(3-Butyl-5-methyl-isoxazol-4-ylmethoxy)-pyridazine-3-carboxylic acid (tetrahydro-furan-3-yl)-amide]: the Ki came to 8.6 nM.

For the compound `CCCCc1noc(C)c1COc1ccc(C(=O)N[C@H](C)CO)nn1` [Example 3, 6-(3-Butyl-5-methyl-isoxazol-4-ylmethoxy)-pyridazine-3-carboxylic acid ((R)-2-hydroxy-1-methyl-ethyl)-amide], the Ki is 7 nM.

For the compound `CCCCc1noc(C)c1COc1ccc(C(=O)NC2CCOCC2)nn1` [Example 2, 6-(3-Butyl-5-methyl-isoxazol-4-ylmethoxy)-pyridazine-3-carboxylic acid (tetrahydro-pyran-4-yl)-amide], the Ki worked out at 16.6 nM.

Turning to `CCCCc1noc(C)c1COc1ccc(C(=O)N[C@@H](C)CO)nn1` [Example 5, 6-(3-Butyl-5-methyl-isoxazol-4-ylmethoxy)-pyridazine-3-carboxylic acid ((S)-2-hydroxy-1-methyl-ethyl)-amide], the Ki was 17.3 nM.
